Measured values reported in PubChem BioAssay (NCI).
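In this assay, cells in 96-well plates receive the compound at five concentrations for 48 hours. Endpoints are linearly interpolated between the surrounding concentrations. TGI marks complete inhibition of growth.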

How the values were obtained:
Experiment in all cases: NCI anticancer screen, dose series, 48 h
M14 melanoma = tested on: M14 melanoma
OVCAR-4 ovarian = tested on: OVCAR-4 ovarian
UACC-62 melanoma = tested on: UACC-62 melanoma
HL-60(TB) leukemia = tested on: HL-60(TB) leukemia
UACC-257 melanoma = tested on: UACC-257 melanoma
TK-10 renal = tested on: TK-10 renal
OVCAR-5 ovarian = tested on: OVCAR-5 ovarian
BT-549 breast = tested on: BT-549 breast
RPMI-8226 leukemia = tested on: RPMI-8226 leukemia
CAKI-1 renal = tested on: CAKI-1 renal
NCI-H226 lung = tested on: NCI-H226 lung
CCRF-CEM leukemia = tested on: CCRF-CEM leukemia
T-47D breast = tested on: T-47D breast
SR leukemia = tested on: SR leukemia
NCI/ADR-RES ovarian = tested on: NCI/ADR-RES ovarian
K-562 leukemia = tested on: K-562 leukemia
SK-OV-3 ovarian = tested on: SK-OV-3 ovarian
A498 renal = tested on: A498 renal
HCT-116 colon = tested on: HCT-116 colon
SNB-75 CNS = tested on: SNB-75 CNS
COLO 205 colon = tested on: COLO 205 colon
SK-MEL-5 melanoma = tested on: SK-MEL-5 melanoma
HCT-15 colon = tested on: HCT-15 colon
A549 NSCLC = tested on: A549 NSCLC
SF-268 CNS = tested on: SF-268 CNS
LOX IMVI melanoma = tested on: LOX IMVI melanoma
IGROV1 ovarian = tested on: IGROV1 ovarian
MDA-MB-231 breast = tested on: MDA-MB-231 breast
RXF 393 renal = tested on: RXF 393 renal
KM12 colon = tested on: KM12 colon
MDA-MB-435 = tested on: MDA-MB-435
MCF7 breast = tested on: MCF7 breast
SW-620 colon = tested on: SW-620 colon
MDA-N = tested on: MDA-N
DU-145 prostate = tested on: DU-145 prostate
786-0 renal = tested on: 786-0 renal
HCC-2998 colon = tested on: HCC-2998 colon
HOP-62 NSCLC = tested on: HOP-62 NSCLC
ACHN renal = tested on: ACHN renal
SF-539 CNS = tested on: SF-539 CNS
SF-295 CNS = tested on: SF-295 CNS
NCI-H460 lung = tested on: NCI-H460 lung
SNB-19 CNS = tested on: SNB-19 CNS
OVCAR-8 ovarian = tested on: OVCAR-8 ovarian
SK-MEL-28 melanoma = tested on: SK-MEL-28 melanoma
PC-3 prostate = tested on: PC-3 prostate
U251 CNS = tested on: U251 CNS
OVCAR-3 ovarian = tested on: OVCAR-3 ovarian
SN12C renal = tested on: SN12C renal
NCI-H23 lung = tested on: NCI-H23 lung
EKVX NSCLC = tested on: EKVX NSCLC
HT29 colon = tested on: HT29 colon
SK-MEL-2 melanoma = tested on: SK-MEL-2 melanoma
NCI-H522 lung = tested on: NCI-H522 lung
HS 578T breast = tested on: HS 578T breast
HOP-92 NSCLC = tested on: HOP-92 NSCLC
MOLT-4 leukemia = tested on: MOLT-4 leukemia
UO-31 renal = tested on: UO-31 renal
MALME-3M melanoma = tested on: MALME-3M melanoma

c1ccc2c[n+](CCCC[n+]3ccc4ccccc4c3)ccc2c1
TGI (M14 melanoma): > 100 µM
TGI (OVCAR-4 ovarian): > 100 µM
TGI (UACC-62 melanoma): > 100 µM
TGI (HL-60(TB) leukemia): > 100 µM
TGI (UACC-257 melanoma): > 100 µM
TGI (TK-10 renal): > 100 µM
TGI (OVCAR-5 ovarian): > 100 µM
TGI (BT-549 breast): > 100 µM
TGI (RPMI-8226 leukemia): > 100 µM
TGI (CAKI-1 renal): > 100 µM
TGI (NCI-H226 lung): > 100 µM
TGI (CCRF-CEM leukemia): > 100 µM
TGI (T-47D breast): > 100 µM
TGI (SR leukemia): > 100 µM
TGI (NCI/ADR-RES ovarian): > 100 µM
TGI (K-562 leukemia): > 100 µM
TGI (SK-OV-3 ovarian): > 100 µM
TGI (A498 renal): > 100 µM
TGI (HCT-116 colon): > 100 µM
TGI (SNB-75 CNS): > 100 µM
TGI (COLO 205 colon): > 100 µM
TGI (SK-MEL-5 melanoma): > 100 µM
TGI (HCT-15 colon): > 100 µM
TGI (A549 NSCLC): > 100 µM
TGI (SF-268 CNS): > 100 µM
TGI (LOX IMVI melanoma): > 100 µM
TGI (IGROV1 ovarian): > 100 µM
TGI (MDA-MB-231 breast): > 100 µM
TGI (RXF 393 renal): > 100 µM
TGI (KM12 colon): > 100 µM
TGI (MDA-MB-435): > 100 µM
TGI (MCF7 breast): > 100 µM
TGI (SW-620 colon): > 100 µM
TGI (MDA-N): > 100 µM
TGI (DU-145 prostate): > 100 µM
TGI (786-0 renal): > 100 µM
TGI (HCC-2998 colon): > 100 µM
TGI (HOP-62 NSCLC): > 100 µM
TGI (ACHN renal): > 100 µM
TGI (SF-539 CNS): > 100 µM
TGI (SF-295 CNS): > 100 µM
TGI (NCI-H460 lung): > 100 µM
TGI (SNB-19 CNS): > 100 µM
TGI (OVCAR-8 ovarian): > 100 µM
TGI (SK-MEL-28 melanoma): > 100 µM
TGI (PC-3 prostate): > 100 µM
TGI (U251 CNS): > 100 µM
TGI (OVCAR-3 ovarian): > 100 µM
TGI (SN12C renal): > 100 µM
TGI (NCI-H23 lung): > 100 µM
TGI (EKVX NSCLC): > 100 µM
TGI (HT29 colon): > 100 µM
TGI (SK-MEL-2 melanoma): > 100 µM

Oc1ccc(Cl)cc1-c1cc(-c2ccccc2)nc(=S)[nH]1
TGI (M14 melanoma): > 100 µM
TGI (OVCAR-4 ovarian): > 100 µM
TGI (HL-60(TB) leukemia): > 100 µM
TGI (UACC-257 melanoma): > 100 µM
TGI (TK-10 renal): 68.7 µM
TGI (OVCAR-5 ovarian): > 100 µM
TGI (RPMI-8226 leukemia): > 100 µM
TGI (CAKI-1 renal): > 100 µM
TGI (NCI-H226 lung): > 100 µM
TGI (CCRF-CEM leukemia): > 100 µM
TGI (NCI-H522 lung): > 100 µM
TGI (T-47D breast): > 100 µM
TGI (NCI/ADR-RES ovarian): > 100 µM
TGI (K-562 leukemia): > 100 µM
TGI (SK-OV-3 ovarian): > 100 µM
TGI (A498 renal): > 100 µM
TGI (HCT-116 colon): > 100 µM
TGI (SNB-75 CNS): 59.2 µM
TGI (COLO 205 colon): > 100 µM
TGI (SK-MEL-5 melanoma): > 100 µM
TGI (HCT-15 colon): > 100 µM
TGI (HS 578T breast): > 100 µM
TGI (A549 NSCLC): > 100 µM
TGI (SF-268 CNS): 77.7 µM
TGI (HOP-92 NSCLC): 47.6 µM
TGI (LOX IMVI melanoma): > 100 µM
TGI (IGROV1 ovarian): > 100 µM
TGI (MDA-MB-231 breast): 85.8 µM
TGI (RXF 393 renal): > 100 µM
TGI (KM12 colon): > 100 µM
TGI (MDA-MB-435): > 100 µM
TGI (MCF7 breast): > 100 µM
TGI (SW-620 colon): > 100 µM
TGI (MDA-N): > 100 µM
TGI (DU-145 prostate): > 100 µM
TGI (786-0 renal): 64 µM
TGI (HCC-2998 colon): > 100 µM
TGI (HOP-62 NSCLC): 46.9 µM
TGI (ACHN renal): > 100 µM
TGI (SF-539 CNS): > 100 µM
TGI (SF-295 CNS): > 100 µM
TGI (NCI-H460 lung): > 100 µM
TGI (SNB-19 CNS): > 100 µM
TGI (OVCAR-8 ovarian): > 100 µM
TGI (SK-MEL-28 melanoma): > 100 µM
TGI (PC-3 prostate): > 100 µM
TGI (MOLT-4 leukemia): > 100 µM
TGI (U251 CNS): 39.8 µM
TGI (OVCAR-3 ovarian): > 100 µM
TGI (SN12C renal): > 100 µM
TGI (NCI-H23 lung): > 100 µM
TGI (UO-31 renal): 68.9 µM
TGI (EKVX NSCLC): > 100 µM
TGI (HT29 colon): > 100 µM
TGI (MALME-3M melanoma): > 100 µM
TGI (SK-MEL-2 melanoma): 78.2 µM
